Experimental data as given in patent US20180296531A1, “STIMULATION OF 11B-HSD2 EXPRESSION TO IMPROVE HORMONAL THERAPY OF STEROID-DEPENDENT DISEASE” (THE CLEVELAND CLINIC FOUNDATION, priority 2015, published 2018).

Tested on: PSA, KLF9, PMEPA1 expression
Assay: Steroid-induced gene expression (PSA, KLF9, PMEPA1) by qPCR in long-term Enz-treated LAPC4 cells
Assay type: cell-based, human
Settings: LAPC4 treated with Enz 36 days, steroid 24 hours
Method: LAPC4 cells were treated with Enz for 36 days and then seeded into 12 well plates coated with poly-DL-ornithine at 50% confluence. […] Total RNA was extracted with a GenElute Mammalian Total RNA miniprep kit (Sigma-Aldrich) and 1 μg RNA was reverse-transcribed to cDNA with the iScript cDNA Synthesis Kit (Bio-Rad). An ABI 7500 Real-Time PCR machine (Applied Biosystems) was used to perform the qPCR analysis, using iTaq Fast SYBR Green Supermix with ROX (Bio-Rad) in 96-well plates at a final reaction volume of 10 μl. The qPCR analysis was carried out in triplicate with suitable primers. Each mRNA transcript was quantitated by normalizing the sample values to RPLP0 and to vehicle treated cells (for steroid treated cells). All gene expression studies were repeated in independent experiments.

Structure (SMILES) | PMEPA1 expression | KLF9 expression | PSA expression
C[C@]12CCC(=O)C[C@@H]1CC[C@@H]1[C@@H]2CC[C@]2(C)[C@@H](O)CC[C@@H]12 [DHT, 5α-dihydrotestosterone] | induced with DHT only | – | –
C[C@]12CCC(=O)C=C1CC[C@@H]1[C@@H]2[C@@H](O)C[C@@]2(C)[C@H]1CC[C@]2(O)C(=O)CO [cortisol] | – | induced | cortisol induction of PSA expression
